Assay results as given in patent US11008346B2, “Beta-lactamase inhibitors” (priority 2014, dated 2021).

Assays:
SHV-5 β-lactamase = molecular target: T1, SHV-5 β-lactamase (Klebsiella pneumoniae, UniProt P0A3M1); assay: β-lactamase enzyme inhibition, SHV-5; type: biochemical
T1 construct: made in house; host or cells: E. coli BL21(DE3)
Outline: (§1)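 IC50 was the inhibitor concentration halving the initial hydrolysis rate versus no-inhibitor wells, following a 15 min 37° C. enzyme–inhibitor preincubation. Substrates: imipenem read at 300 nm for KPC-2, cefotaxime at 260 nm for SHV-5, and nitrocefin (100 μM final) at 486 nm for OXA-1 and p99 AmpC. Enzymes were recombinant untagged proteins from E. coli BL21(DE3).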

[1] = molecular target: T2, VIM-2 metallo β-lactamase (Pseudomonas aeruginosa, UniProt Q9K2N0); assay: β-lactamase enzyme inhibition, VIM-2; type: biochemical; conditions: Nitrocefin 100 μM, 486 nm; 15 min at 37° C. preincubation; read-out: IC50 VIM-2 (Class B)
T2 construct: made in house; host or cells: E. coli BL21(DE3)
Outline: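 Inhibitor and enzyme sat together 15 min at 37° C before 100 μM nitrocefin (final) was added and 486 nm absorbance read for 10 min. IC50 is the concentration halving initial hydrolysis rate relative to uninhibited wells. Protein came from Q sepharose anion exchange at pH 7.5, repeated to >90% purity.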

p99 AmpC β-lactamase = molecular target: T3, p99 AmpC β-lactamase (Enterobacter cloacae, UniProt P05364); assay: β-lactamase enzyme inhibition, p99 AmpC; type: biochemical
T3 construct: made in house; host or cells: E. coli BL21(DE3)
T3 sequence (P05364 21-381): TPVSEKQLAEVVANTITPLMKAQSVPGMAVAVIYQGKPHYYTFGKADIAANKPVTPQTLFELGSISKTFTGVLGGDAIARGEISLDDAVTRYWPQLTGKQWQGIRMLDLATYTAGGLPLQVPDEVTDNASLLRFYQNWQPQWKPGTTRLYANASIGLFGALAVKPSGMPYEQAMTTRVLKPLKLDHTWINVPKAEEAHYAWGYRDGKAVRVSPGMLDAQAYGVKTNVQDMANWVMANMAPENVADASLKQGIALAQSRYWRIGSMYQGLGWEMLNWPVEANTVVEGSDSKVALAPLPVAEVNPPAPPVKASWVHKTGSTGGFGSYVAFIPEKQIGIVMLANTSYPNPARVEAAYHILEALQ
Outline: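 Inhibitor and enzyme were incubated 15 min at 37°C first. The enzyme was recombinant p99 AmpC, untagged, from E. coli BL21(DE3), purified by ion-exchange and size-exclusion chromatography.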

OXA-1 β-lactamase = molecular target: T4, OXA-1 β-lactamase (Escherichia coli, UniProt P13661); assay: β-lactamase enzyme inhibition, OXA-1; type: biochemical; conditions: Nitrocefin 100 μM, 486 nm; 15 min at 37° C. preincubation; read-out: IC50 OXA-1 (Class D)
T4 construct: made in house; host or cells: E. coli BL21(DE3)
T4 sequence (P13661 26-276): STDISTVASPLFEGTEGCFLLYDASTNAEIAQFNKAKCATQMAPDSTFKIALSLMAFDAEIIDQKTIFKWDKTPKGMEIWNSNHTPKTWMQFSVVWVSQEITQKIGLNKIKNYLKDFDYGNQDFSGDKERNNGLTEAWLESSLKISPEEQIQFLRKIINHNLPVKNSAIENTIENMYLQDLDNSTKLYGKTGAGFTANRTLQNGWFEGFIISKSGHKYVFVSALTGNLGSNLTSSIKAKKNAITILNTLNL
Description: For SHV-5, Kpc-2, p99AmpC and OXA-1 β-lactamases, E. coli BL21(DE3) bacterial cells carrying expression plasmids (expressed as native untagged proteins) for the individual β-lactamases were grown in 1 L of Superbroth (Teknova Inc. Hollister, Calif.) supplemented with 100 μg/ml kanamycin selection and 1×5052 (0.5% glycerol, 0.05% glucose and 0.2% α-lactose) at 35° C. for 18-20 hours. Cells were harvested by centrifugation (4,000×g, 4° C., 20 min), resuspended in 50 ml of 10 mM HEPES pH 7.5 ( 1/20 of the initial volume). The cells were lysed by sonication (5 pulses of 45 seconds) at 45 W on ice. The lysates were clarified by centrifugation at 10,000×g for 40 minutes at 4° C. Samples were diluted 5-fold in 50 mM sodium acetate pH 5.0, stored overnight at 4° C., after which they were centrifuged at 10,000×g for 30 minutes to clarify, and filtered through 0.45 μm filters. The samples were loaded onto a 5 ml Capto S sepharose cation exchange column (GE Healthcare) pre-equilibrated with 50 mM sodium acetate pH 5.0. The column was washed with 5 column volumes of 50 mM sodium acetate pH 5.0 to wash out unbound protein and a linear gradient of NaCl (0 to 500 mM) was used to elute the protein (over 16 CV) from the column. Fractions were assayed for […] activity using Centa (Calbiochem, Gibbstown, N.J.) or Nitrocefin (EMD Millipore chemicals, Darmstadt, Germany) as a reporter β-lactamase substrate for activity in the isolated fractions. Active fractions were pooled, concentrated and further purified by gel filtration chromatography on a Superdex 75 prep grade gel filtration column (GE Healthcare, Piscataway, N.J.) pre-equilibrated in 50 mM Hepes pH 7.5, 150 mM NaCl. Active fractions were pooled, concentrated, and quantitated by BCA protein determination (Thermo Scientific, Rockford, Ill.), dialyzed into PBS and frozen at −80° C. in 20% glycerol until use.
An equal volume of diluted enzyme stock was added, and the plates were incubated at 37° C. for 15 min. Nitrocefin was used as substrate for p99 AmpC, VIM-2 and OXA-1 and dispensed into each well at a final concentration of 100 μM. Absorbance at 486 nm was immediately monitored for 10 min using a Biotek Powerwave XS2 microplate spectrophotometer using the GEN5 software package (Biotek Instruments, Winooski Vt.). In an analogous fashion, imipenem was used as substrate for KPC-2 and Cefotaxime was used for SHV-5, while changes in absorbance upon hydrolysis of the β-lactam ring were monitored at 300 nm and 260 nm respectively in UV-transparent 96-well microtiter assay plates. Maximum rates of hydrolysis were compared to those in control wells (without inhibitors), and percentages of enzyme inhibition were calculated for each concentration of inhibitor. The concentration of inhibitor needed to reduce the initial rate of hydrolysis of substrate by 50% (IC50) was calculated as the residual activity of β-lactamase at 486 nm using GraFit version 7 kinetics software package (Erithacus Software, Surrey, UK).
Using the methodology described above, examples of the current invention were evaluated for their ability to inhibit β-lactamase enzymes from all four Ambler classifications (A through D). […] NT=Not tested.

KPC-2 β-lactamase = molecular target: T5, KPC-2 β-lactamase (Klebsiella pneumoniae, UniProt Q9F663); assay: β-lactamase enzyme inhibition, KPC-2; type: biochemical; conditions: imipenem substrate, 300 nm; 15 min at 37° C. preincubation; read-out: IC50 KPC-2 (Class A)
T5 construct: made in house; host or cells: E. coli BL21(DE3)
T5 sequence (Q9F663 25-293, looked up): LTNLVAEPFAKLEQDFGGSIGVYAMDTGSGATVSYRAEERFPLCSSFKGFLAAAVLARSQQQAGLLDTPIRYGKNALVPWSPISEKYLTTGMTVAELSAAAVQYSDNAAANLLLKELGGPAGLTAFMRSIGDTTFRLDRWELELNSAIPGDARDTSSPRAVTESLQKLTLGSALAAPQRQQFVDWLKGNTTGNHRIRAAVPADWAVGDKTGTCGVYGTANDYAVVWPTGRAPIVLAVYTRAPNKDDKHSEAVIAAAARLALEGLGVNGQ
Outline: as §1

[2] = test system: E. coli ESBL4 expressing CTX-M-15; assay: broth microdilution MIC, E. coli CTX-M-15; type: cell-based; conditions: Fixed CAZ (ceftazidime) 4 μg/mL
Outline: (§2)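 CAMHB; strains pre-grown 3-5 h. Test cpd 2-fold dilutions, 32→0.25 μg/mL final, + beta-lactam static 4 μg/mL. CLSI inoculation, 16-20 h at 37° C, visual MIC.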

[3] = test system: E. cloacae 144200 expressing Class C P99 AmpC; assay: broth microdilution MIC, E. cloacae P99; type: cell-based; conditions: Fixed CAZ (ceftazidime) 4 μg/mL
Outline: as §2

[4] = test system: K. pneumoniae A-1797 expressing KPC-2 and VIM-4; assay: broth microdilution MIC, K. pneumoniae KPC-2 and VIM-4; type: cell-based; conditions: Fixed Mero (meropenem) 4 μg/mL
Outline: as §2

[5] = test system: K. pneumoniae 156319 expressing KPC-3; assay: broth microdilution MIC, K. pneumoniae KPC-3; type: cell-based; conditions: Fixed Mero (meropenem) 4 μg/mL
Outline: as §2

T1 sequence (P0A3M1 22-286): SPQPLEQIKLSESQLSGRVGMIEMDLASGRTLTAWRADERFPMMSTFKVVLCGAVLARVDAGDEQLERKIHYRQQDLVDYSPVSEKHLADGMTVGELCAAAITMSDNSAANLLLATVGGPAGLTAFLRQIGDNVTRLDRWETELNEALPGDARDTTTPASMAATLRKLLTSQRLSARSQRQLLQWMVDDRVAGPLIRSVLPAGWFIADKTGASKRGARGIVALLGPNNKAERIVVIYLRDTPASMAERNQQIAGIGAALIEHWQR

| Structure (SMILES) | IC50 (SHV-5 β-lactamase) | IC50 [1] | IC50 (p99 AmpC β-lactamase) | IC50 (OXA-1 β-lactamase) | IC50 (KPC-2 β-lactamase) | MIC of exemplary compounds in presence of fixed β-lactams, E. coli ESBL4 CTX-M-15 [2] | MIC of exemplary compounds in presence of fixed β-lactams, E. cl. 144200 p99 AmpC [3] | MIC of exemplary compounds in presence of fixed β-lactams, K.P. A-1797 KPC-2 VIM-4 [4] | MIC of exemplary compounds in presence of fixed β-lactams, K.P. 156319 KPC-3 [5] |
| --- | --- | --- | --- | --- | --- | --- | --- | --- | --- |
| CC(C)(C#N)CC(=O)N[C@H]1Cc2cccc(C(=O)O)c2OB1O [Example 43, (R)-3-(3-Cyano-3,3-dimethyl-propionylamino)-2-hydroxy-3,4-dihydro-2H-benzo[e][1,2]oxaborinine-8-carboxylic acid] | 100 to 1000 nM | 100 to 1000 nM | 100 to 1000 nM | < 100 nM | < 100 nM | C (C represents the MIC in the presence of ≤4 g/mL of a β-lactamase inhibitor) | C (C represents the MIC in the presence of ≤4 g/mL of a β-lactamase inhibitor) | B (B represents the MIC in the presence of between 8 and 32 g/mL of a β-lactamase inhibitor) | C (C represents the MIC in the presence of ≤4 g/mL of a β-lactamase inhibitor) |
| N#CCCC(=O)N[C@H]1Cc2ccc(F)c(C(=O)O)c2OB1O [Example 46, (R)-3-(3-Cyano-propionylamino)-7-fluoro-2-hydroxy-3,4-dihydro-2H-benzo[e][1,2]oxaborinine-8-carboxylicacid] | < 100 nM | 100 to 1000 nM | < 100 nM | < 100 nM | < 100 nM | C (C represents the MIC in the presence of ≤4 g/mL of a β-lactamase inhibitor) | C (C represents the MIC in the presence of ≤4 g/mL of a β-lactamase inhibitor) | B (B represents the MIC in the presence of between 8 and 32 g/mL of a β-lactamase inhibitor) | C (C represents the MIC in the presence of ≤4 g/mL of a β-lactamase inhibitor) |
| CC(=O)CCC(=O)N[C@H]1Cc2ccc(F)c(C(=O)O)c2OB1O [Example 47, (R)-7-Fluoro-2-hydroxy-3-(4-oxo-pentanoylamino)-3,4-dihydro-2H-benzo[e][1,2]oxaborinine-8-carboxylic acid] | < 100 nM | < 100 nM | < 100 nM | < 100 nM | < 100 nM | C (C represents the MIC in the presence of ≤4 g/mL of a β-lactamase inhibitor) | C (C represents the MIC in the presence of ≤4 g/mL of a β-lactamase inhibitor) | C (C represents the MIC in the presence of ≤4 g/mL of a β-lactamase inhibitor) | C (C represents the MIC in the presence of ≤4 g/mL of a β-lactamase inhibitor) |
| CS(=O)(=O)NCCC(=O)N[C@H]1Cc2ccc(F)c(C(=O)O)c2OB1O [Example 48, (R)-7-Fluoro-2-hydroxy-3-(3-methanesulfonylamino-propionylamino)-3,4-dihydro-2H-benzo[e][1,2]oxaborinine-8-carboxylic acid] | < 100 nM | 100 to 1000 nM | < 100 nM | < 100 nM | < 100 nM | C (C represents the MIC in the presence of ≤4 g/mL of a β-lactamase inhibitor) | C (C represents the MIC in the presence of ≤4 g/mL of a β-lactamase inhibitor) | B (B represents the MIC in the presence of between 8 and 32 g/mL of a β-lactamase inhibitor) | C (C represents the MIC in the presence of ≤4 g/mL of a β-lactamase inhibitor) |
| N#CCCC(=O)N[C@H]1Cc2cc(F)c(F)c(C(=O)O)c2OB1O [Example 49, (R)-3-(3-Cyano-propionylamino)-6,7-difluoro-2-hydroxy-3,4-dihydro-2H-benzo[e][1,2]oxaborinine-8-carboxylic acid] | < 100 nM | 1000 to 10000 nM | 100 to 1000 nM | < 100 nM | < 100 nM | C (C represents the MIC in the presence of ≤4 g/mL of a β-lactamase inhibitor) | C (C represents the MIC in the presence of ≤4 g/mL of a β-lactamase inhibitor) | B (B represents the MIC in the presence of between 8 and 32 g/mL of a β-lactamase inhibitor) | C (C represents the MIC in the presence of ≤4 g/mL of a β-lactamase inhibitor) |
| CC(=O)CCC(=O)N[C@H]1Cc2cc(F)c(F)c(C(=O)O)c2OB1O [Example 50, (R)-6,7-Difluoro-2-hydroxy-3-(4-oxo-pentanoylamino)-3,4-dihydro-2H-benzo[e][1,2]oxaborinine-8-carboxylic acid] | < 100 nM | 100 to 1000 nM | 100 to 1000 nM | < 100 nM | < 100 nM | C (C represents the MIC in the presence of ≤4 g/mL of a β-lactamase inhibitor) | C (C represents the MIC in the presence of ≤4 g/mL of a β-lactamase inhibitor) | B (B represents the MIC in the presence of between 8 and 32 g/mL of a β-lactamase inhibitor) | B (B represents the MIC in the presence of between 8 and 32 g/mL of a β-lactamase inhibitor) |
| CS(=O)(=O)NCCC(=O)N[C@H]1Cc2cc(F)c(F)c(C(=O)O)c2OB1O [Example 51, (R)-6,7-Difluoro-2-hydroxy-3-(3-methanesulfonylamino-propionylamino)-3,4-dihydro-2H-benzo[e][1,2]oxaborinine-8-carboxylic acid] | < 100 nM | 1000 to 10000 nM | < 100 nM | < 100 nM | < 100 nM | C (C represents the MIC in the presence of ≤4 g/mL of a β-lactamase inhibitor) | C (C represents the MIC in the presence of ≤4 g/mL of a β-lactamase inhibitor) | B (B represents the MIC in the presence of between 8 and 32 g/mL of a β-lactamase inhibitor) | C (C represents the MIC in the presence of ≤4 g/mL of a β-lactamase inhibitor) |
